Measurements published in publication PMC6804006, “Synthesis, Biological Activities and Docking Studies of Novel 4-(Arylaminomethyl)benzamide Derivatives as Potential Tyrosine Kinase Inhibitors” (Molecules, 2019).

How the values were obtained:
KDR (VEGFR2) = molecular target: T1, KDR (VEGFR2) (Homo sapiens, UniProt P35968); test: ADP-Glo kinase inhibitory assay, KDR; type: biochemical; settings: 10 nM
T1 construct: purchased Promega
Description: (§1) We investigated the kinase selectivity of targeted compounds against eight receptor tyrosine kinases including EGFR (epidermal growth factor receptor), HER-2 and HER4 (human epidermal growth factor receptor), IGF1R (insulin like growth factor 1 receptor), InsR (gene insulin receptor), KDR (kinase insert domain receptor), and PDGFRa and PDGFRb (platelet-derived growth factor receptors). The assay was performed using the Kinase-Glo Plus luminescence kinase assay kit (TK-1+ADP-Glo™, Promega, San Diego, CA, USA). It measures kinase activity by quantitating the amount of ATP remaining in solution following a kinase reaction.
Vascular endothelial growth factor receptor 2 (VEGFR2), also called kinase insert domain receptor (KDR), is a tyrosine kinase receptor for VEGFs that plays a central role in tumor angiogenesis; therefore, the inhibition of VEGFR2 is a promising therapeutic strategy for inhibiting angiogenesis and tumor growth.
(§2) The assay was performed using a Kinase Selectivity Profiling System (TK-1+ADP-Glo™ Assay and TK-2+ADP-Glo™ Assay, Promega), where the kinase activity was measured by quantifying the amount of ADP produced during a kinase reaction. The assay is performed in two steps; firstly, after the kinase reaction, an equal volume of ADP-Glo™ Reagent is added to terminate the kinase reaction and deplete the remaining ATP. Secondly, the Kinase Detection Reagent is added to simultaneously convert ADP to ATP and allow the newly synthesized ATP to be measured using a luciferase/luciferin reaction. The luminescent signal generated is proportional to the ADP concentration produced and is correlated with kinase activity. Our compounds were diluted with kinase buffer (5% DMSO), and 1 μL of the dilution was added to a 5-μL reaction so that the final concentration of DMSO was 1% in all of reactions. All of the enzymatic reactions were conducted at 23 °C for 60 min. The 5-μL reaction mixture contained 1µL of the compound solution, 2µL of the enzyme solution, and 2 µL of kinase substrate. After the enzymatic reaction, 5 µL of ADP-Glo™ Reagent (Promega, USA) was added to each reaction, and the plate was incubated for 40 min at 23 °C. Then, 10 µL of Kinase Detection Reagent (Promega, USA) was added to each reaction, and the plate was incubated for 30 min at 23 °C. Luminescence signal was measured using an Infinite M 200 plate reader (Tecan, Switzerland).
(§3) Kinase activity assays were performed in duplicate at each concentration. The luminescence data were analyzed using the computer software, Magellan™. The difference between luminescence intensities in the absence of Kinase (Lut) and in the presence of Kinase (Luc) was defined as 100% activity (Lut − Luc).

HER-2 = molecular target: T2, HER-2 (Homo sapiens, UniProt P04626); test: ADP-Glo kinase inhibitory assay, HER-2; type: biochemical; settings: read-out: % Inhibition at 10 nM, HER-2
T2 construct: purchased Promega
Description: as §1, §2, §3

EGFR = molecular target: T3, EGFR (Homo sapiens, UniProt P00533); test: ADP-Glo kinase inhibitory assay, EGFR; type: biochemical; settings: read-out: % Inhibition at 10 nM, EGFR
T3 construct: purchased Promega
Description: as §1, §2, §3

PDGFRb = molecular target: T4, PDGFRb (Homo sapiens, UniProt P09619); test: ADP-Glo kinase inhibitory assay, PDGFRb; type: biochemical; settings: read-out: % Inhibition at 10 nM, PDGFRb
T4 construct: purchased Promega
T4 sequence (P09619 33-1106): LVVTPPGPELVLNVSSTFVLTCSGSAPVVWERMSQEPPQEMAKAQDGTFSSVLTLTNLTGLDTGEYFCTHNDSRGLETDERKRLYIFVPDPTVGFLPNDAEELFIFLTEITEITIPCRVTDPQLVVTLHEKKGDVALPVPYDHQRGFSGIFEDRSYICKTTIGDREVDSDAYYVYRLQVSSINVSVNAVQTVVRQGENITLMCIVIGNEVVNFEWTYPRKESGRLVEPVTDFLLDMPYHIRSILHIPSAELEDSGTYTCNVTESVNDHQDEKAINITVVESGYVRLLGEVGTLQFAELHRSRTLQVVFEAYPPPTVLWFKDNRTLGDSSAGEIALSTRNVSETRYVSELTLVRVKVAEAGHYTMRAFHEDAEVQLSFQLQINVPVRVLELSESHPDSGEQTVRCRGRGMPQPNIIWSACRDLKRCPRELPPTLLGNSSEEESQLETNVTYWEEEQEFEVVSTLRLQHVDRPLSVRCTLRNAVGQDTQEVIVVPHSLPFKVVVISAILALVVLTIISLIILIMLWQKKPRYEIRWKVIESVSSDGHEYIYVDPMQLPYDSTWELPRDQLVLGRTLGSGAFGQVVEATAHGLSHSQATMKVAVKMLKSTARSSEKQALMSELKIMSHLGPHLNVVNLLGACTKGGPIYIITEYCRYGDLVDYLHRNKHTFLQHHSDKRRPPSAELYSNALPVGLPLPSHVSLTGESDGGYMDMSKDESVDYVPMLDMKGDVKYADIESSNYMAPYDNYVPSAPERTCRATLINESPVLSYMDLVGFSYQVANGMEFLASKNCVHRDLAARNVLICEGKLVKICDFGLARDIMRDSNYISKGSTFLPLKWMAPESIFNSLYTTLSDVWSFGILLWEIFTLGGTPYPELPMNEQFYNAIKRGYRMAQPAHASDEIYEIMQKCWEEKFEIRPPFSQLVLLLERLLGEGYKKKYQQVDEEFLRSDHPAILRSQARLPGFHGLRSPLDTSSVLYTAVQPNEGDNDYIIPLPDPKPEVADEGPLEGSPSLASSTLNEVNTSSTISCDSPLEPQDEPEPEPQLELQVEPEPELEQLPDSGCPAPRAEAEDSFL
Description: as §1, §2, §3

[1] = tested on: K-562 (chronic myelogenous leukemia); test: MTT anti-proliferative assay, K-562; type: cell-based; settings: Homo sapiens, K562, 48 h, 50% growth inhibition
Description: (§4) Each in vitro experiment was performed at least in triplicate, and the standard deviation of absorbance was less than 10% of the mean. For the in vitro assays, a stock solution (1% DMSO in the appropriate buffer with the tested compound diluted under sonication) was prepared from which several dilutions were made with the appropriate buffer.
(§5) Human cell lines were obtained from the Institute of Cytology, Russian Academy of Sciences. […] Cellular sensitivities to clofarabine and its lipid derivatives were measured with the MTT assay. Cells were plated in triplicate in 96-well plates (10^5 cells/well for suspended cell cultures and 5 × 10^3 cells/well for monolayer cultures); on the same day (suspended cell cultures) or on the following day (monolayer cultures), compounds were added at the appropriate dilutions. Plates were incubated under standard conditions for 48 h. Thereafter, 10 μL of MTT (Sigma) in phosphate-buffered saline (5 mg/mL) was added. The plates were incubated for an additional 4 h, and 150 μL of dimethyl sulfoxide (DMSO) was added to dissolve the formazan crystals. The optical density was read on a HALO MPR-95 Microplate Reader (Dynamica Scientific Ltd., Australia) at 570 nm. The antiproliferative effects were determined as degrees of inhibition of tumor cells (%).

[2] = tested on: HL-60 (promyelocytic leukemia); test: MTT anti-proliferative assay, HL-60; type: cell-based, human; settings: Homo sapiens, HL-60, 48 h, 50% growth inhibition
Description: as §4, §5

InsR = molecular target: T5, InsR (Homo sapiens, UniProt P06213); test: ADP-Glo kinase inhibitory assay, InsR; type: biochemical; settings: for inhibition at 0.01 µM: read-out: % Inhibition at 10 nM, InsR; for selectivity for the gene insulin receptor, in words: 10 nM, panel of eight receptor tyrosine kinases
T5 construct: purchased Promega
T5 sequence (P06213 28-1382): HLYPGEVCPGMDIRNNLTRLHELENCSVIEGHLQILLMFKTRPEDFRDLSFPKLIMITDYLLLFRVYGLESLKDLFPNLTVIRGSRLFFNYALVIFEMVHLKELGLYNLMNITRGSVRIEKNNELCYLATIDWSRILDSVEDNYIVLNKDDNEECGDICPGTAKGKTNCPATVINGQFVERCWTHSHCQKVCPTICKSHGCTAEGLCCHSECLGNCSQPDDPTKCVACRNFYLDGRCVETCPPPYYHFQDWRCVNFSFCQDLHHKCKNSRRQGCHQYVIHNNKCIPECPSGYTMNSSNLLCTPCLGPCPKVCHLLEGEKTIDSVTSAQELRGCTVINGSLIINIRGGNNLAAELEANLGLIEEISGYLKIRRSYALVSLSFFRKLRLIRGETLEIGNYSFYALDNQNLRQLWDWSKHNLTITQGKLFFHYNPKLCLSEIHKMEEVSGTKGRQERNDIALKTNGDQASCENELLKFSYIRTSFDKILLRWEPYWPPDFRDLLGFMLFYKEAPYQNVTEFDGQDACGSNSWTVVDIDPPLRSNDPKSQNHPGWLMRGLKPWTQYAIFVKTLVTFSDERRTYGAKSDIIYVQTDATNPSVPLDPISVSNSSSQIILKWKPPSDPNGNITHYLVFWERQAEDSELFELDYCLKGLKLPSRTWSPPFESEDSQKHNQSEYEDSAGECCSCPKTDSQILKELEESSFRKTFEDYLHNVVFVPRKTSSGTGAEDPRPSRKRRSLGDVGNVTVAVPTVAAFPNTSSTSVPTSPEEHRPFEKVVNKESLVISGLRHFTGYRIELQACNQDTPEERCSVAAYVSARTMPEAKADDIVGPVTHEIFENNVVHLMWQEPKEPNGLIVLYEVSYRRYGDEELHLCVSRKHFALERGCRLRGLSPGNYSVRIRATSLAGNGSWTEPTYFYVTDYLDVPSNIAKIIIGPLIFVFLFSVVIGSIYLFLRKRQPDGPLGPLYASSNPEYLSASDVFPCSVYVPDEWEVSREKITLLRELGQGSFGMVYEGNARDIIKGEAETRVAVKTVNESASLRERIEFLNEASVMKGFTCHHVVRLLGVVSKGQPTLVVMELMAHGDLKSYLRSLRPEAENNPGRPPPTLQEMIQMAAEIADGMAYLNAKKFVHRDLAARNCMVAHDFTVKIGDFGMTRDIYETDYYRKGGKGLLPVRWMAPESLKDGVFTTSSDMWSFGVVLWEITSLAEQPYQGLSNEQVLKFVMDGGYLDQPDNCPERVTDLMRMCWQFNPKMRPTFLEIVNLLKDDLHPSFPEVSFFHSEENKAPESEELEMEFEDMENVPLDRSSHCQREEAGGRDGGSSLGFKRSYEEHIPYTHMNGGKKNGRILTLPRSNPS
Description: as §1, §2, §3

PDGFRa = molecular target: T6, PDGFRa (Homo sapiens, UniProt P16234); test: ADP-Glo kinase inhibitory assay, PDGFRa; type: biochemical; settings: read-out: % Inhibition at 10 nM, PDGFRa
T6 construct: purchased Promega
Description: as §1, §2, §3

HeLa (cervix carcinoma) = test: MTT anti-proliferative assay, HeLa; type: cell-based; settings: Homo sapiens, 48 h, 50% growth inhibition
Description: as §4, §5

HER-4 = molecular target: T7, HER-4 (Homo sapiens, UniProt Q15303); test: ADP-Glo kinase inhibitory assay, HER-4; type: biochemical; settings: for inhibitory activity in relation to HER-4, in words: 10 nM, compared with imatinib; for inhibition at 0.01 µM: read-out: % Inhibition at 10 nM, HER-4
T7 construct: purchased Promega
T7 sequence (Q15303 26-1308): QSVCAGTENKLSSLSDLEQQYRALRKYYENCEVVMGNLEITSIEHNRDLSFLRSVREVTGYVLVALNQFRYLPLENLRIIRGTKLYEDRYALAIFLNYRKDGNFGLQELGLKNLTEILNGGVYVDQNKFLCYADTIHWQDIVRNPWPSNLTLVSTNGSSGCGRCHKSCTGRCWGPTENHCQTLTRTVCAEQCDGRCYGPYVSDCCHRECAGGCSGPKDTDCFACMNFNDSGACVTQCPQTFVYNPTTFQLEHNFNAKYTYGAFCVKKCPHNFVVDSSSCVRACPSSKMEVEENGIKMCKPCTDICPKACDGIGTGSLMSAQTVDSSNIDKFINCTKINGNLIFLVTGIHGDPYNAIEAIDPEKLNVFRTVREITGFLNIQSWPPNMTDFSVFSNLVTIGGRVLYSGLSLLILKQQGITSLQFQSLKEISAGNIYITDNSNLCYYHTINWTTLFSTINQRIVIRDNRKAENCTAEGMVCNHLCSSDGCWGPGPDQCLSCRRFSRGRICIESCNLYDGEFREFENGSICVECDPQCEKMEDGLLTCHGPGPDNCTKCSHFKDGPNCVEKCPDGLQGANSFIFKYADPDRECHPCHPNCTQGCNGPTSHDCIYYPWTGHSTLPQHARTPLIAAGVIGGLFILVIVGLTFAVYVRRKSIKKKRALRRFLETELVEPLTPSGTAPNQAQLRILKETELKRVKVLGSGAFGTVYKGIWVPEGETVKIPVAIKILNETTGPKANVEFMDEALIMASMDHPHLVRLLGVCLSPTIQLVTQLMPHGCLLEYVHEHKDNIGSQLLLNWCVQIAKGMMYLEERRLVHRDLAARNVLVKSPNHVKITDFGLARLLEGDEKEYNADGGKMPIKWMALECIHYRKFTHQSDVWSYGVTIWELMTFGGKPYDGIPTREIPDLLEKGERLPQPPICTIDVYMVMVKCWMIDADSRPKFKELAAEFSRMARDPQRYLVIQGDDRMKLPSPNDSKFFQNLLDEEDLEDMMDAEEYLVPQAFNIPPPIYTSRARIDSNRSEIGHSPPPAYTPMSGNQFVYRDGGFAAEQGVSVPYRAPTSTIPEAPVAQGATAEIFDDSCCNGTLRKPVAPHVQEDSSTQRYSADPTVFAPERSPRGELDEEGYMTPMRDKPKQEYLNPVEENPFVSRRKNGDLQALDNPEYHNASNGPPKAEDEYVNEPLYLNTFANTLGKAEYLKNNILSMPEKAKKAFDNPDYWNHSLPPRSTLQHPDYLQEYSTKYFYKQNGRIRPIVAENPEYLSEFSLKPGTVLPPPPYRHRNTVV
Description: as §1, §2, §3

A549 (lung carcinoma) = test: MTT anti-proliferative assay, A-549; type: cell-based; settings: Homo sapiens, 48 h, 50% growth inhibition
Description: as §4, §5

[3] = tested on: MCF-7 (breast adenocarcinoma); test: MTT anti-proliferative assay, MCF-7; type: cell-based; settings: Homo sapiens, MCF7, 48 h, 50% growth inhibition
Description: as §4, §5

[4] = tested on: OKP-GS (carcinoma of the kidney); test: MTT anti-proliferative assay, OKP-GS; type: cell-based; settings: Homo sapiens, 48 h, 50% growth inhibition
Description: as §4, §5

IGF1R = molecular target: T8, IGF1R (Homo sapiens, UniProt P08069); test: ADP-Glo kinase inhibitory assay, IGF1R; type: biochemical; settings: read-out: % Inhibition at 10 nM, IGF1R
T8 construct: purchased Promega
Description: as §1, §2, §3

[5] = tested on: RPMI 1788 (B lymphocyte, human normal cells); test: MTT assay on normal cells RPMI 1788; type: cell-based; settings: MTT 48 h
Description: as §4
Human cell lines were obtained from the Institute of Cytology, Russian Academy of Sciences. The cell lines studied were maintained in RPMI 1640 medium (AppliChem, Darmstadt, Germany) supplemented with 20% (HL-60, RPMI 1788) fetal calf serum (HyClone, Cramlington, UK), in DMEM (A 549) and Eagle’s MEM (AppliChem) (MCF7, HeLa) with 10% fetal calf serum (HyClone). Cells were cultivated at 37 °C in a humidified atmosphere of 5% CO2. Cellular sensitivities to clofarabine and its lipid derivatives were measured with the MTT assay. Cells were plated in triplicate in 96-well plates (10^5 cells/well for suspended cell cultures and 5 × 10^3 cells/well for monolayer cultures); on the same day (suspended cell cultures) or on the following day (monolayer cultures), compounds were added at the appropriate dilutions. Plates were incubated under standard conditions for 48 h. Thereafter, 10 μL of MTT (Sigma) in phosphate-buffered saline (5 mg/mL) was added. The plates were incubated for an additional 4 h, and 150 μL of dimethyl sulfoxide (DMSO) was added to dissolve the formazan crystals. The optical density was read on a HALO MPR-95 Microplate Reader (Dynamica Scientific Ltd., Australia) at 570 nm. The antiproliferative effects were determined as degrees of inhibition of tumor cells (%).

T1 sequence (P35968 20-1356): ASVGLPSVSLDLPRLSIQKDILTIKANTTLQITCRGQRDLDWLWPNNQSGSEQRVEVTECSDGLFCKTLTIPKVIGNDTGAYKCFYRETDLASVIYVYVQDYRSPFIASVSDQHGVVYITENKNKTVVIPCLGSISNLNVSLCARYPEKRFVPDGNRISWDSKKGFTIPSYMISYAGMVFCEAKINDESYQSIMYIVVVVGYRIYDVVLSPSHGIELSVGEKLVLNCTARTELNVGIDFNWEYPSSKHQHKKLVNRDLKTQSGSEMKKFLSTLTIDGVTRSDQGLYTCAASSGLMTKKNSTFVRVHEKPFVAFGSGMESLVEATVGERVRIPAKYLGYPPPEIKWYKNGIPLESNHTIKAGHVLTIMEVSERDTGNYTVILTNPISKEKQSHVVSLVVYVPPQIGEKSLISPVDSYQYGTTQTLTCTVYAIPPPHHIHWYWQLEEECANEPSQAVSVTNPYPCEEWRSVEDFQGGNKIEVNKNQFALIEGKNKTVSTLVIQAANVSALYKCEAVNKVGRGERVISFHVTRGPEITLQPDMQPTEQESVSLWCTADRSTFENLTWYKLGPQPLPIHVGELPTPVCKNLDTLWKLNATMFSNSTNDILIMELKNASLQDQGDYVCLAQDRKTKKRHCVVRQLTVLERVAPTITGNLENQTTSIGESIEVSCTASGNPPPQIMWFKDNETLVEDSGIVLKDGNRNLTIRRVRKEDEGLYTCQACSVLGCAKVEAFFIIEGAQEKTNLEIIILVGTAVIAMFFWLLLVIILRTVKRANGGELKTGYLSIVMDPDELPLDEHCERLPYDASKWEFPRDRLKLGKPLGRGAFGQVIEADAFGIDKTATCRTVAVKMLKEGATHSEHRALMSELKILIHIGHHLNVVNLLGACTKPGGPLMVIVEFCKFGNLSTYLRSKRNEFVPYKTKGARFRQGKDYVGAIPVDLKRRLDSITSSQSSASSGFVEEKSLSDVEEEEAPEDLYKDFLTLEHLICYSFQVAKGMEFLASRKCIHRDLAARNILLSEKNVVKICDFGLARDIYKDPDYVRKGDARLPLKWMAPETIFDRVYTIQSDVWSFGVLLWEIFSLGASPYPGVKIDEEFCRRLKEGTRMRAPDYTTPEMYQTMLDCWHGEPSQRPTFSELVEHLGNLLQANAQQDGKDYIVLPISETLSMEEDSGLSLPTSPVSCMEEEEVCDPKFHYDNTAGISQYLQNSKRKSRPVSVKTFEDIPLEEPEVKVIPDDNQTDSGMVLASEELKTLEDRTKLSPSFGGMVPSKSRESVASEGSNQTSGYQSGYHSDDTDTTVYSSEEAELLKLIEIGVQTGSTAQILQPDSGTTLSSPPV

Row | SMILES | inhibition at 0.01 µM (KDR (VEGFR2)) [%] | inhibition at 0.01 µM (HER-2) [%] | inhibition at 0.01 µM (EGFR) [%] | melting point [°C] | inhibition at 0.01 µM (PDGFRb) [%] | IC50 [1] [µM] | IC50 [2] [µM] | inhibition at 0.01 µM (InsR) [%] | inhibition at 0.01 µM (PDGFRa) [%] | IC50 (HeLa (cervix carcinoma)) [µM] | inhibitory activity in relation to HER-4, in words (HER-4) | inhibition at 0.01 µM (HER-4) [%] | IC50 (A549 (lung carcinoma)) [µM] | IC50 [3] [µM] | IC50 [4] [µM] | inhibition at 0.01 µM (IGF1R) [%] | inhibition at 100 µM [5] [%] | selectivity for the gene insulin receptor, in words (InsR)
1 | Cc1cn(-c2cc(NC(=O)c3ccc(CN4CCN(C(=O)c5cccnc5)CC4)cc3)cc(C(F)(F)F)c2)cn1 [Compound 28l] | 17 | 0 | 0 | 96 to 100 | 7 | 4.5 | 53.5 | 0 | 0 | > 100 | comparable to imatinib | 51 | > 100 | 77 | > 100 | 0 | – | –
2 | Cc1cn(-c2cc(NCc3ccc(C(=O)Nc4cc(-n5cnc(C)c5)cc(C(F)(F)F)c4)cc3)cc(C(F)(F)F)c2)cn1 [Compound 8, N-(3-(4-methyl-1H-imidazol-1-yl)-5-(trifluoromethyl)phenyl)-4-(((3-(4-methyl-1H-imidazol-1-yl)-5-(trifluoromethyl)phenyl)amino)methyl)benzamide] | – | – | – | 200 to 202 | – | – | – | – | – | 87 | – | – | 85 | 9.5 | > 100 | – | 19.3 | –
3 | Cc1cn(-c2cc(NC(=O)c3ccc(CCl)cc3)cc(C(F)(F)F)c2)cn1 [Compound 5, 4-(Chloromethyl)-N-(3-(4-methyl-1H-imidazol-1-yl)-5-(trifluoromethyl)phenyl)benzamide] | 0 | 0 | 0 | – | 0 | 69 | 45 | 57 | 0 | 51.8 | – | 0 | 53.5 | 54 | 70 | 0 | < 0.1 | high selectivity
4 | Cc1cn(-c2cc(NC(=O)c3ccc(CN4CCN(C(=O)c5ccccc5F)CC4)cc3)cc(C(F)(F)F)c2)cn1 [Compound 28j, 4-{[4-(2-Fluorobenzoyl)piperazin-1-yl]methyl}-N-[3-(4-methyl-1H-imidazol-1-yl)-5-(trifluoromethyl)phenyl]benzamide] | 0 | 0 | 0 | 106 to 109 | 2 | 6.9 | 30.6 | 50 | 8 | – | – | 0 | > 100 | 71 | – | 0 | 6.44 | high selectivity
5 | CCOC(=O)CCC(NC(=O)c1ccc(CNc2cc(-n3cnc(C)c3)cc(C(F)(F)F)c2)cc1)C(=O)OCC (centres unmarked) [Compound 14, Diethyl(4-(((3-(4-methyl-1H-imidazol-1-yl)-5-(trifluoromethyl)phenyl)amino)methyl)benzoyl)glutamate] | 0 | 0 | 0 | 125 to 127 | 0 | 50 | 45 | 23 | 0 | – | – | 0 | – | – | – | 0 | 10.4 | high selectivity
6 | Cc1cn(-c2cc(NC(=O)c3ccc(CN4CCN(C(=O)c5cccc(F)c5)CC4)cc3)cc(C(F)(F)F)c2)cn1 [Compound 28k, 4-{[4-(3-Fluorobenzoyl)piperazin-1-yl]methyl}-N-[3-(4-methyl-1H-imidazol-1-yl)-5-(trifluoromethyl)phenyl]benzamide] | 23 | 0 | 0 | 90 to 93 | 2 | 3.6 | 38.5 | 33 | 0 | – | comparable to imatinib | 43 | – | – | – | 0 | 3.14 | –
7 | CNC(=O)c1cc(Oc2ccc(NC(=O)Nc3ccc(Cl)c(C(F)(F)F)c3)cc2)ccn1 [Sorafenib, reference compound] | – | – | – | – | – | – | – | – | – | – | – | – | 58 | 55 | 51 | – | – | –
8 | Cc1cn(-c2cc(NC(=O)c3ccc(C)c(Nc4nccc(-c5cccnc5)n4)c3)cc(C(F)(F)F)c2)cn1 [Nilotinib, reference compound] | – | – | – | – | – | < 0.1 | 55 | – | – | – | – | – | – | – | 55 | – | < 0.1 | –
9 | Cc1cn(-c2cc(NC(=O)c3ccc(CNc4cc([N+](=O)[O-])ccc4C)cc3)cc(C(F)(F)F)c2)cn1 [Compound 9, N-(3-(4-methyl-1H-imidazol-1-yl)-5-(trifluoromethyl)phenyl)-4-(((2-methyl-5-nitrophenyl)amino)methyl)benzamide] | – | – | – | 113 to 115 | – | 51 | 57 | – | – | – | – | – | > 100 | > 100 | > 100 | – | – | –
